Data set [1] has as its target Phosphatidylinositol 4,5-bisphosphate 3-kinase catalytic subunit alpha isoform (Homo sapiens, UniProt P42336). Put plainly: Inhibition of PI3Kalpha (unknown origin) using PIP2 as substrate in presence of ATP by Kinase-Glo assay.
Data set [2] deals with HGC-27. Briefly: Antiproliferative activity against human HGC-27 cells assessed as inhibition of cell growth measured after 72 hrs by CTG assay. The format is functional, cell-based. Particulars: HGC-27, 72 h.
Data set [3] in a line: Antiproliferative activity against human U373 cells assessed as inhibition of cell growth measured after 72 hrs by CTG assay. The format is functional, cell-based. Particulars: U373 MG.
Data set [4] deals with U-87 MG. Briefly: Antiproliferative activity against human U-87 MG cells assessed as inhibition of cell growth measured after 72 hrs by CTG assay. The format is functional, cell-based, U-87MG ATCC.
For data set [5], the system named is MCF7. Put plainly: Antiproliferative activity against human MCF7 cells assessed as inhibition of cell growth measured after 72 hrs by CTG assay. The class given is functional, cell-based. The following applies: MCF7, 72 h.
Data set [6] concerns SK-MEL-2. Put plainly: Antiproliferative activity against human SK-MEL-2 cells assessed as inhibition of cell growth measured after 72 hrs by CTG assay. The class given is functional, cell-based. Particulars: SK-MEL-2, 72 h.
Data set [7] relates to SK-MEL-5. Put plainly: Antiproliferative activity against human SK-MEL-5 cells assessed as inhibition of cell growth measured after 72 hrs by CTG assay. The class given is functional, cell-based. Particulars: SK-MEL-5, 72 h.
Data set [8] deals with HGC-27. Put plainly: Antiproliferative activity against human HGC-27 cells assessed as inhibition of cell growth pre-treated with compound followed by UV irradiation for 5 mins measured after 72 hrs by CTG assay. The format is functional, cell-based. The following applies: HGC-27, light or radiation study.
The nature of data set [9]: Antiproliferative activity against human U373 cells assessed as inhibition of cell growth pre-treated with compound followed by UV irradiation for 5 mins measured after 72 hrs by CTG assay. The format is functional, cell-based. The following applies: U373 MG, light or radiation study.
Data set [10] concerns U-87 MG. Put plainly: Antiproliferative activity against human U-87 MG cells assessed as inhibition of cell growth pre-treated with compound followed by UV irradiation for 5 mins measured after 72 hrs by CTG assay. The format is functional, cell-based, U-87MG ATCC. Particulars: light or radiation study.
In data set [11] the test system is MCF7. Briefly: Antiproliferative activity against human MCF7 cells assessed as inhibition of cell growth pre-treated with compound followed by UV irradiation for 5 mins measured after 72 hrs by CTG assay. The following applies: MCF7, light or radiation study. The class given is functional, cell-based.
Data set [12] deals with SK-MEL-2. Briefly: Antiproliferative activity against human SK-MEL-2 cells assessed as inhibition of cell growth pre-treated with compound followed by UV irradiation for 5 mins measured after 72 hrs by CTG assay. The class given is functional, cell-based. Particulars: SK-MEL-2, light or radiation study.
The test system of data set [13] is SK-MEL-5. Put plainly: Antiproliferative activity against human SK-MEL-5 cells assessed as inhibition of cell growth pre-treated with compound followed by UV irradiation for 5 mins measured after 72 hrs by CTG assay. The class given is functional, cell-based. The following applies: SK-MEL-5, light or radiation study.
A short description of data set [14]: Selectivity ratio of IC50 for antiproliferative activity against human HGC-27 cells to IC50 for antiproliferative activity against human HGC-27 cells in presence of UV irradiation. The class given is functional.
Data set [15] can be described thus: Selectivity ratio of IC50 for antiproliferative activity against human U373 cells to IC50 for antiproliferative activity against human U373 cells in presence of UV irradiation. The format is functional.
Data set [16] is described as follows: Selectivity ratio of IC50 for antiproliferative activity against human U-87 MG cells to IC50 for antiproliferative activity against human U-87 MG cells in presence of UV irradiation. The class given is functional, U-87MG ATCC.
A short description of data set [17]: Selectivity ratio of IC50 for antiproliferative activity against human MCF7 cells to IC50 for antiproliferative activity against human MCF7 cells in presence of UV irradiation. The class given is toxicity, cell-based. The following applies: read-out: Ratio IC50.
A short description of data set [18]: Selectivity ratio of IC50 for antiproliferative activity against human SK-MEL-2 cells to IC50 for antiproliferative activity against human SK-MEL-2 cells in presence of UV irradiation. The format is functional.
Data set [19] is described as follows: Selectivity ratio of IC50 for antiproliferative activity against human SK-MEL-5 cells to IC50 for antiproliferative activity against human SK-MEL-5 cells in presence of UV irradiation. The format is functional.
Data set [20] relates to HGC-27. Briefly: Inhibition of PI3K in human HGC-27 cells assessed as reduction in AKT phosphorylation at S473 residue at 10 nM pre-treated with compound followed by UV irradiation for 5 mins measured after 24 hrs by Western blotting analysis. The format is cell-based. The following applies: time 1445.0 min. (In western blotting, separated proteins are transferred to a membrane and probed.)

In data set [21] the test system is HGC-27. Briefly: Inhibition of PI3K in human HGC-27 cells assessed as reduction in S6RP phosphorylation at S240 and 244 residue at 10 nM pre-treated with compound followed by UV irradiation for 5 mins measured after 24 hrs by Western blotting analysis. The format is cell-based. The following applies: time 1445.0 min.
Data set [22] concerns HGC-27. Put plainly: Inhibition of colony formation in human HGC-27 cells at 10 nM pre-treated with compound followed by UV irradiation for 5 mins measured after 3 days by crystal violet staining based analysis. The following applies: time 4325.0 min. The class given is functional, cell-based.
Data set [23] deals with HGC-27. Briefly: Photorelease activity in human HGC-27 cells assessed as release of 7-hydroxy-3-(hydroxymethyl)-2H-chromen-2-one incubated for 2 hrs in presence of UV irradiation by confocal microscopic analysis. The following applies: hgc-27, 2 h, dose 1-10 µM. The format is ADME, cell-based.
For data set [24], the system named is HGC-27. Briefly: Photorelease activity in human HGC-27 cells assessed as release of 7-hydroxy-3-(hydroxymethyl)-2H-chromen-2-one incubated for 2 hrs by confocal microscopic analysis. The format is ADME, cell-based. The following applies: hgc-27, 2 h.
Data set [25] concerns HGC-27. Briefly: Photorelease activity in human HGC-27 cells assessed as increase in intracellular fluorescence intensity at 0.4 to 10 uM incubated for 2 hrs in presence of UV irradiation for 5 to 30 mins by fluorescence based microplate reader analysis. The format is ADME, cell-based. Particulars: hgc-27, 2 h, TDE = time-dependent effect, dose 0.4-10 µM.
Data set [26] has as its system HGC-27. Briefly: Photorelease activity in human HGC-27 cells assessed as increase in intracellular fluorescence intensity incubated for 2 hrs in presence of UV irradiation for 5 to 30 mins by fluorescence based microplate reader analysis. The format is ADME, cell-based. The following applies: hgc-27, 2 h, dose 0.4-10 µM.

Active and inactive are the calls of the source. No cut-off for these calls is given here.

Sequence of Phosphatidylinositol 4,5-bisphosphate 3-kinase catalytic subunit alpha isoform (P42336 whole entry, canonical isoform): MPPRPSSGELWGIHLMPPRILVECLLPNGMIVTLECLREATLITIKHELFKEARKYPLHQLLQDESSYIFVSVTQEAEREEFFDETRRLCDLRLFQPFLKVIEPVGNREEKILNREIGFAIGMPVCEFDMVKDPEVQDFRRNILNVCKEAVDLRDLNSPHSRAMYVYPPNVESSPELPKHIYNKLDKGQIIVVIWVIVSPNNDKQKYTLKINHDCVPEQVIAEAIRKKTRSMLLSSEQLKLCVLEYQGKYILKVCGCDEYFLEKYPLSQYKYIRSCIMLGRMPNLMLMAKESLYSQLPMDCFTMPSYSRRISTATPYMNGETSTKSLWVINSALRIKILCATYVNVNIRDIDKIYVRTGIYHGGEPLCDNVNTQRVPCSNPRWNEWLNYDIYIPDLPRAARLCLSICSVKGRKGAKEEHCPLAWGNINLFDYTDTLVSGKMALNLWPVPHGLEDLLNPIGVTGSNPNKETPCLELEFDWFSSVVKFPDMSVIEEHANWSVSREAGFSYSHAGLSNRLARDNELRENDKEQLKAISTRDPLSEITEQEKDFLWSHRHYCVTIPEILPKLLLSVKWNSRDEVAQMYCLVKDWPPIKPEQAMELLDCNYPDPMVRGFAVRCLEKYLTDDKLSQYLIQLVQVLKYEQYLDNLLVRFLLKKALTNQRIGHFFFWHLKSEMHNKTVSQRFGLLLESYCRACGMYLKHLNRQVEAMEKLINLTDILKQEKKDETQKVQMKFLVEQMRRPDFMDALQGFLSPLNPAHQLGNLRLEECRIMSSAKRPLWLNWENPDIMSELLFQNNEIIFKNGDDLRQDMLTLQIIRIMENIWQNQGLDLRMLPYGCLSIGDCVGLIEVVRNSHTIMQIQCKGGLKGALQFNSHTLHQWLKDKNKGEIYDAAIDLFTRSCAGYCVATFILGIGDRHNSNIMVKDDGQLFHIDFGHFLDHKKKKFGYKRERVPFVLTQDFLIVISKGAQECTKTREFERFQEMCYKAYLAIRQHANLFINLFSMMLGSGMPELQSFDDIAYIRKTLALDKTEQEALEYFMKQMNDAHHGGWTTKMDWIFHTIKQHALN

What is called IC50 is the point on the concentration scale where inhibition reaches its midpoint. In the case of `COc1cc(COc2ccc3cc(CN(c4cc(-c5cc(OC6CCOCC6)c6ncnc(C)c6c5)cnc4OC)S(=O)(=O)c4ccc(F)cc4F)c(=O)oc3c2)c([N+](=O)[O-])cc1OC`, the IC50 in data set [1] was 18.9 nM; in [2] it was 701 nM; in data set [3], above 10000 nM; in data set [4] it was 3260 nM; in data set [5] it was above 10000 nM; in data set [6], 2810 nM. Moreover, the IC50 came out at 6560 nM in data set [7]; 3.7 nM in [8]; 46 nM in data set [9]; 52 nM in [10]; 428 nM in data set [11]; 143 nM in data set [12]. In data set [13], the half-maximal inhibitory concentration (IC50) worked out at 434 nM. The “Ratio IC50” value was 189 in data set [14]; above 217 in data set [15]; 63 in data set [16]; 20 in data set [18]; 15 in data set [19]. Also, in data set [17], the selectivity ratio was above 23. Further, the inhibition entry in data set [20] and in [21] was “Active” each time. The result in data set [22] was Active. For the same compound, the Activity entry was “Dose-Dependent Effect” in data set [23], “Not Active” in data set [24], “Tde” in [25] and “Dose-Dependent Effect” in data set [26].
As to `COc1ncc(-c2cc(OC3CCOCC3)c3ncnc(C)c3c2)cc1NS(=O)(=O)c1ccc(F)cc1F`, the IC50 in data set [1] came to 0.17 nM; in data set [2], 1.8 nM; in data set [3], 57 nM; in [4], 50 nM; in [5] it was 282 nM; in data set [6], 190 nM. The IC50 in data set [7] is 65 nM. For the same compound, the inhibition entry in data set [20] and in data set [21] was “Active” each time. Further, the outcome in data set [22] was Active.
For `COc1ncc(-c2cc(OC3CCOCC3)c3ncnc(C)c3c2)cc1N(Cc1cc2ccc(O)cc2oc1=O)S(=O)(=O)c1ccc(F)cc1F`, the concentration for half-maximal inhibition (IC50) in data set [1] worked out at 2.07 nM; in [2], 3.9 nM; in data set [3], 25 nM; in data set [4], 11 nM; in data set [5] it was 295 nM; in [6], 130 nM. In addition, the half-maximal inhibitory concentration (IC50) in data set [7] was 190 nM. The inhibition result in data set [20] and in data set [21] was “Active” each time. Also, the result in data set [22] was Active.
